Test results from patent publication US20070082871A1, “Antiresorptive mutual salt of raloxifene and bisphosphonic acid” (HANMI PHARM. CO., LTD., priority 2003, published 2007).
Read-outs that look alike come from different tables or passages of the source.

Assays:
[1] = test system: ovary-removed rats; experiment: In vivo test: blood cholesterol level; design: species or system rats (Sprague-Dawley); settings: for Total blood cholesterol Conc.: oophorectomy rats, oral once a day 8 weeks; for Total blood cholesterol Relativ. Conc.: relative to OVX control = 1.00
Protocol: (§1) In order to investigate the effects of the inventive mutual salts on BMD, bone stiffness, serum cholesterol level and calcium density, in vivo tests were carried out as follows.
(§2) Also, 1.5% carboxymethylcellulose alone was administrated in a same manner to each of ovary-removed rats (group OVX) and normal rats (control, group Sham). After 8 weeks, a femur sample was obtained from each test groups to measure BMD, maximum load, stiffness, trabecular volume of epiphysis, bone volume of metaphysis, blood cholesterol level and blood calcium density.

[2] = test system: ovary-removed rats; settings: for Bone volume Vol.: (bone volume)/(metaphysis volume) × 100; for Trabecular volume Vol.: (trabecular volume)/(epiphysis volume) × 100; for BMD / Stiffness Max. load / Stiffness Stiff.: femur; for BMD / Stiffness Max. load / Stiffness Stiff. / Blood calcium density Conc.: oophorectomy rats, oral once a day 8 weeks; for Stiffness Relativ. Stiff.: relative Max. Load value, OVX control = 1.00; for Trabecular volume Relativ Vol / BMD Relativ. Density / Blood calcium density Relativ. Conc. / Bone volume Relativ Vol: relative to OVX control = 1.00
Protocol: as §1, §2

[3] = in words, as compared with the individual raloxifene hydrochloride or alendronate

Compound: NCCCC(O)(P(=O)(O)O)P(=O)(O)O [Alendronate, sodium alendronate trihydrate]
- Total blood cholesterol Conc. ([1]; 1.0 mg/kg (T1)): 98.387 ± 17.23 mg/dL
- Total blood cholesterol Relativ. Conc. ([1]; 1.0 mg/kg (T1)): 0.93
- Bone volume Vol. ([2]; 1.0 mg/kg (T1)): 56.46 ± 17.93%
- Trabecular volume Vol. ([2]; 1.0 mg/kg (T1)): 20.27 ± 7.76%
- BMD ([2]; 1.0 mg/kg (T1)): 92.57 ± 5.64 mg/cm^2
- Stiffness Max. load ([2]; 1.0 mg/kg (T1)): 19.22 ± 2.14 N
- Stiffness Stiff. ([2]; 1.0 mg/kg (T1)): 19.02 ± 3.86 N/mm
- Stiffness Relativ. Stiff. ([2]; 1.0 mg/kg (T1)): 0.88
- Trabecular volume Relativ Vol ([2]; 1.0 mg/kg (T1)): 1.75

Compound: Cl.O=C(c1ccc(OCCN2CCCCC2)cc1)c1c(-c2ccc(O)cc2)sc2cc(O)ccc12 [Raloxifene hydrochloride, 6-hydroxy-2-(4-hydroxyphenyl)benzo[b]thien-3-yl 4-[2-(1-piperidinyl)ethoxy]phenyl methanone hydrochloride]
- Total blood cholesterol Conc. ([1]; 1.9 mg/kg (T2)): 41.40 ± 9.71 mg/dL
- Total blood cholesterol Conc. ([1]; 5.6 mg/kg (T3)): 40.83 ± 14.2 mg/dL
- Total blood cholesterol Relativ. Conc. ([1]; 1.9 mg/kg (T2)): 0.39
- Total blood cholesterol Relativ. Conc. ([1]; 5.6 mg/kg (T3)): 0.39
- Bone volume Vol. ([2]; 1.9 mg/kg (T2)): 75.96 ± 17.61%
- Bone volume Vol. ([2]; 5.6 mg/kg (T3)): 65.56 ± 15.33%
- Trabecular volume Vol. ([2]; 1.9 mg/kg (T2)): 11.25 ± 2.57%
- Trabecular volume Vol. ([2]; 5.6 mg/kg (T3)): 15.15 ± 4.08%
- BMD ([2]; 1.9 mg/kg (T2)): 91.09 ± 6.98 mg/cm^2
- Stiffness Max. load ([2]; 1.9 mg/kg (T2)): 30.00 ± 3.24 N
- Stiffness Stiff. ([2]; 1.9 mg/kg (T2)): 33.07 ± 9.55 N/mm
- BMD ([2]; 5.6 mg/kg (T3)): 93.76 ± 6.22 mg/cm^2
- Stiffness Max. load ([2]; 5.6 mg/kg (T3)): 32.09 ± 4.37 N
- Stiffness Stiff. ([2]; 5.6 mg/kg (T3)): 38.64 ± 15.2 N/mm
- Blood calcium density Conc. ([2]; 1.9 mg/kg (T2)): 9.20 ± 0.33 mg/dL
- Blood calcium density Conc. ([2]; 5.6 mg/kg (T3)): 9.42 ± 0.23 mg/dL
- Stiffness Relativ. Stiff. ([2]; 1.9 mg/kg (T2)): 1.37
- Stiffness Relativ. Stiff. ([2]; 5.6 mg/kg (T3)): 1.46
- BMD Relativ. Density ([2]; 1.9 mg/kg (T2)): 1.17
- Blood calcium density Relativ. Conc. ([2]; 1.9 mg/kg (T2)): 0.98
- Bone volume Relativ Vol ([2]; 1.9 mg/kg (T2)): 2.64
- Trabecular volume Relativ Vol ([2]; 1.9 mg/kg (T2)): 0.97
- BMD Relativ. Density ([2]; 5.6 mg/kg (T3)): 1.20
- Blood calcium density Relativ. Conc. ([2]; 5.6 mg/kg (T3)): 1.00
- Bone volume Relativ Vol ([2]; 5.6 mg/kg (T3)): 2.28
- Trabecular volume Relativ Vol ([2]; 5.6 mg/kg (T3)): 1.31

Compound: raloxifene alendronate pentahydrate
- blood cholesterol level [1, 3]: effectively controls
- Total blood cholesterol Conc. ([1]; 2.9 mg/kg (T4)): 66.86 ± 9.68 mg/dL
- Total blood cholesterol Relativ. Conc. ([1]; 2.9 mg/kg (T4)): 0.64
- Bone volume Vol. ([2]; 2.9 mg/kg (T4)): 68.00 ± 9.00%
- Trabecular volume Vol. ([2]; 2.9 mg/kg (T4)): 17.81 ± 2.49%
- BMD ([2]; 2.9 mg/kg (T4)): 99.28 ± 6.25 mg/cm^2
- Stiffness Max. load ([2]; 2.9 mg/kg (T4)): 26.50 ± 0.73 N
- Stiffness Stiff. ([2]; 2.9 mg/kg (T4)): 35.34 ± 11.3 N/mm
- BMD, bone stiffness, trabecular volume and bone volume [2, 3]: markedly enhances
- blood calcium level [2, 3]: effectively controls
- Blood calcium density Conc. ([2]; 2.9 mg/kg (T4)): 6.69 ± 0.94 mg/dL
- Stiffness Relativ. Stiff. ([2]; 2.9 mg/kg (T4)): 1.21
- BMD Relativ. Density ([2]; 2.9 mg/kg (T4)): 1.27
- Blood calcium density Relativ. Conc. ([2]; 2.9 mg/kg (T4)): 0.71
- Bone volume Relativ Vol ([2]; 2.9 mg/kg (T4)): 2.37
- Trabecular volume Relativ Vol ([2]; 2.9 mg/kg (T4)): 1.54
